Patent US20220233566A1, “NOVEL CARBONATE COMPOUND HAVING PYRROLOPYRIMIDINE SKELETON OR PHARMACEUTICALLY ACCEPTABLE SALT THEREOF” (TAIHO PHARMACEUTICAL CO., LTD., priority 2019, published 2022)

How the values were obtained:
Assay type in all cases: cell-based
[1] = Growth suppression activity in human tumor cell line; conditions: 72 h; Human prostate cancer, DUI45, 3 days
Protocol: (§1) Human tumor cell lines different in type were suspended in mediums, seeded in individual wells of a multi-well plate and cultured. On the day after initiation of culture, serially diluted solutions of a compound were added. Culture was carried out for further 3 days. Cells were counted by a CellTiter-Glo (manufactured by Promega KK) in accordance with the protocol recommended by Promega KK. Cell viability was calculated in accordance with the equation shown below and the concentration (IC50 (μM)) of the compound at which 50% of cell growth is inhibited was obtained.
(§2) T: Intensity of light emitted from a well containing a compound
(§3) C: Intensity of light emitted from a well containing no compound

786-0 = assay: as above; conditions: 72 h; Human renal cancer, 786-0, 3 days
Protocol: as §1, §2, §3

A2780 = assay: as above; conditions: 72 h; Human ovary cancer, A2780, 3 days
Protocol: as §1, §2, §3

A673 = assay: as above; conditions: 72 h; Human bone tumor, A673, 3 days
Protocol: as §1, §2, §3

BC3 = assay: as above; conditions: BC-3, 72 h; Human hematopoietic organ tumor, BC3, 3 days
Protocol: as §1, §2, §3

BXPC3 = assay: as above; conditions: BXPC-3, 72 h; Human pancreatic cancer, BXPC3, 3 days
Protocol: as §1, §2, §3

CAPAN2 = assay: as above; conditions: Capan-2, 72 h; Human pancreatic cancer, CAPAN2, 3 days
Protocol: as §1, §2, §3

CFPAC1 = assay: as above; conditions: CFPAC-1, 72 h; Human pancreatic cancer, CFPAC1, 3 days
Protocol: as §1, §2, §3

DLD1 = assay: as above; conditions: DLD-1, 72 h; Human colorectal cancer, DLD1, 3 days
Protocol: as §1, §2, §3

DOK = assay: as above; conditions: 72 h, Human head and neck cancer, 3 days
Protocol: as §1, §2, §3

EBC1 = assay: as above; conditions: EBC-1, 72 h; Human lung cancer, EBC1, 3 days
Protocol: as §1, §2, §3

H2081 = assay: as above; conditions: NCI-H2081, 72 h; Human lung cancer, H2081, 3 days
Protocol: as §1, §2, §3

H2126 = assay: as above; conditions: NCI-H2126, 72 h; Human lung cancer, H2126, 3 days
Protocol: as §1, §2, §3

H226 = assay: as above; conditions: NCI-H226, 72 h; Human lung cancer, H226, 3 days
Protocol: as §1, §2, §3

H23 = assay: as above; conditions: NCI-H23, 72 h; Human lung cancer, H23, 3 days
Protocol: as §1, §2, §3

H441 = assay: as above; conditions: NCI-H441, 72 h; Human lung cancer, H441, 3 days
Protocol: as §1, §2, §3

H526 = assay: as above; conditions: NCI-H526, 72 h; Human lung cancer, H526, 3 days
Protocol: as §1, §2, §3

HCC1806 = assay: as above; conditions: 72 h; Human breast cancer, HCC1806, 3 days
Protocol: as §1, §2, §3

HCT116 = assay: as above; conditions: HCT-116, 72 h; Human colorectal cancer, HCT116, 3 days
Protocol: as §1, §2, §3

HL60 = assay: as above; conditions: HL-60, 72 h; Human hematopoietic organ tumor, HL60, 3 days
Protocol: as §1, §2, §3

HT1197 = assay: as above; conditions: 72 h; human bladder cancer, HT1197, 3 days
Protocol: as §1, §2, §3

HT1376 = assay: as above; conditions: HT-1376, 72 h; human bladder cancer, HT1376, 3 days
Protocol: as §1, §2, §3

K562 = assay: as above; conditions: 72 h; Human hematopoietic organ tumor, K562, 3 days
Protocol: as §1, §2, §3

MCF7 = assay: as above; conditions: 72 h; Human breast cancer, MCF7, 3 days
Protocol: as §1, §2, §3

MES01 = assay: as above; conditions: 72 h; Human lung cancer, MES01, 3 days
Protocol: as §1, §2, §3

MIAPACA2 = assay: as above; conditions: MIA PaCa-2, 72 h; Human pancreatic cancer, MIAPACA2, 3 days
Protocol: as §1, §2, §3

MKN45 = assay: as above; conditions: MKN-45, 72 h; Human stomach cancer, MKN45, 3 days
Protocol: as §1, §2, §3

MOLT4 = assay: as above; conditions: MOLT-4, 72 h; Human hematopoietic organ tumor, MOLT4, 3 days
Protocol: as §1, §2, §3

Mero48a = assay: as above; conditions: 72 h, Human lung cancer, 3 days
Protocol: as §1, §2, §3

Mero82 = assay: as above; conditions: 72 h; Human lung cancer, Mero82, 3 days
Protocol: as §1, §2, §3

Mero83 = assay: as above; conditions: 72 h; Human lung cancer, Mero83, 3 days
Protocol: as §1, §2, §3

N87 = assay: as above; conditions: 72 h; Human stomach cancer, N87, 3 days
Protocol: as §1, §2, §3

RPMI8226 = assay: as above; conditions: RPMI-8226, 72 h; Human hematopoietic organ tumor, RPMI8226, 3 days
Protocol: as §1, §2, §3

SPC111 = assay: as above; conditions: 72 h; Human lung cancer, SPC111, 3 days
Protocol: as §1, §2, §3

SW620 = assay: as above; conditions: SW-620, 72 h; Human colorectal cancer, SW620, 3 days
Protocol: as §1, §2, §3

Nc1ncnc2c1c(Br)cn2[C@@H]1O[C@H](CO)[C@@H](O)[C@@H]1F [Comparative Example 1, (2R,3R,4S,5R)-5-(4-amino-5-bromo-7H-pyrrolo[2,3-d]pyrimidin-7-yl)-4-fluoro-2-(hydroxymethyl) tetrahydrofuran-3-ol]
IC50 [1]: 90 nM | IC50 (786-0): 220 nM | IC50 (A2780): 50 nM | IC50 (A673): 130 nM | IC50 (BC3): 20 nM | IC50 (BXPC3): 270 nM | IC50 (CAPAN2): 50 nM | IC50 (CFPAC1): 110 nM | IC50 (DLD1): 50 nM | IC50 (DOK): 110 nM | IC50 (EBC1): 60 nM | IC50 (H2081): 90 nM | IC50 (H2126): 110 nM | IC50 (H226): 130 nM | IC50 (H23): 50 nM | IC50 (H441): 140 nM | IC50 (H526): 170 nM | IC50 (HCC1806): 130 nM | IC50 (HCT116): 120 nM | IC50 (HL60): 300 nM | IC50 (HT1197): 130 nM | IC50 (HT1376): 60 nM | IC50 (K562): 110 nM | IC50 (MCF7): 80 nM | IC50 (MES01): 410 nM | IC50 (MIAPACA2): 70 nM | IC50 (MKN45): 210 nM | IC50 (MOLT4): 60 nM | IC50 (Mero48a): 160 nM | IC50 (Mero82): 460 nM | IC50 (Mero83): 350 nM | IC50 (N87): 30 nM | IC50 (RPMI8226): 340 nM | IC50 (SPC111): 360 nM | IC50 (SW620): 230 nM
